Laboratory results: US20190000850A1, “COMBINATION CANCER THERAPY” (The Regents of the University of California, priority 2015, published 2019)

Legend:
leukemia cell growth = experiment: IC50 (cytotoxicity assay) of RNR inhibitors, Table 1; type: cell-based
Procedure: Cells were plated in a 384-well plate (1,000 cells/well for suspension cell lines and 500 cells/well for adherent cell lines in 30 μL). For suspension cell lines, the plate was incubated in 37° C. for 1 h to let the cells settle. For adherent cell lines, the plate was incubated overnight to allow the cells to seed. During incubation, drugs were diluted to desired concentration by serial dilution, vehicle condition was created by adding equivalent amount of DMSO. After incubation, 10 μL of diluted drugs were added to each well, and incubated for 72 h. After incubation, Cell TiterGlo reagent was added to each well according to manufacturer's instructions (Promega, CellTiter-Glo® Luminescent Cell Viability Assay). The plates were shaken for 2 min and incubated in dark for 8 min. Luminescence readings were obtained with luminometer (Molecular devices, SpectraMax).

ATR = ATR (Homo sapiens, UniProt Q13535); settings: read-out: IC50 against primary target (ATR); cited from earlier work
Chain of ATR (Q13535 whole entry): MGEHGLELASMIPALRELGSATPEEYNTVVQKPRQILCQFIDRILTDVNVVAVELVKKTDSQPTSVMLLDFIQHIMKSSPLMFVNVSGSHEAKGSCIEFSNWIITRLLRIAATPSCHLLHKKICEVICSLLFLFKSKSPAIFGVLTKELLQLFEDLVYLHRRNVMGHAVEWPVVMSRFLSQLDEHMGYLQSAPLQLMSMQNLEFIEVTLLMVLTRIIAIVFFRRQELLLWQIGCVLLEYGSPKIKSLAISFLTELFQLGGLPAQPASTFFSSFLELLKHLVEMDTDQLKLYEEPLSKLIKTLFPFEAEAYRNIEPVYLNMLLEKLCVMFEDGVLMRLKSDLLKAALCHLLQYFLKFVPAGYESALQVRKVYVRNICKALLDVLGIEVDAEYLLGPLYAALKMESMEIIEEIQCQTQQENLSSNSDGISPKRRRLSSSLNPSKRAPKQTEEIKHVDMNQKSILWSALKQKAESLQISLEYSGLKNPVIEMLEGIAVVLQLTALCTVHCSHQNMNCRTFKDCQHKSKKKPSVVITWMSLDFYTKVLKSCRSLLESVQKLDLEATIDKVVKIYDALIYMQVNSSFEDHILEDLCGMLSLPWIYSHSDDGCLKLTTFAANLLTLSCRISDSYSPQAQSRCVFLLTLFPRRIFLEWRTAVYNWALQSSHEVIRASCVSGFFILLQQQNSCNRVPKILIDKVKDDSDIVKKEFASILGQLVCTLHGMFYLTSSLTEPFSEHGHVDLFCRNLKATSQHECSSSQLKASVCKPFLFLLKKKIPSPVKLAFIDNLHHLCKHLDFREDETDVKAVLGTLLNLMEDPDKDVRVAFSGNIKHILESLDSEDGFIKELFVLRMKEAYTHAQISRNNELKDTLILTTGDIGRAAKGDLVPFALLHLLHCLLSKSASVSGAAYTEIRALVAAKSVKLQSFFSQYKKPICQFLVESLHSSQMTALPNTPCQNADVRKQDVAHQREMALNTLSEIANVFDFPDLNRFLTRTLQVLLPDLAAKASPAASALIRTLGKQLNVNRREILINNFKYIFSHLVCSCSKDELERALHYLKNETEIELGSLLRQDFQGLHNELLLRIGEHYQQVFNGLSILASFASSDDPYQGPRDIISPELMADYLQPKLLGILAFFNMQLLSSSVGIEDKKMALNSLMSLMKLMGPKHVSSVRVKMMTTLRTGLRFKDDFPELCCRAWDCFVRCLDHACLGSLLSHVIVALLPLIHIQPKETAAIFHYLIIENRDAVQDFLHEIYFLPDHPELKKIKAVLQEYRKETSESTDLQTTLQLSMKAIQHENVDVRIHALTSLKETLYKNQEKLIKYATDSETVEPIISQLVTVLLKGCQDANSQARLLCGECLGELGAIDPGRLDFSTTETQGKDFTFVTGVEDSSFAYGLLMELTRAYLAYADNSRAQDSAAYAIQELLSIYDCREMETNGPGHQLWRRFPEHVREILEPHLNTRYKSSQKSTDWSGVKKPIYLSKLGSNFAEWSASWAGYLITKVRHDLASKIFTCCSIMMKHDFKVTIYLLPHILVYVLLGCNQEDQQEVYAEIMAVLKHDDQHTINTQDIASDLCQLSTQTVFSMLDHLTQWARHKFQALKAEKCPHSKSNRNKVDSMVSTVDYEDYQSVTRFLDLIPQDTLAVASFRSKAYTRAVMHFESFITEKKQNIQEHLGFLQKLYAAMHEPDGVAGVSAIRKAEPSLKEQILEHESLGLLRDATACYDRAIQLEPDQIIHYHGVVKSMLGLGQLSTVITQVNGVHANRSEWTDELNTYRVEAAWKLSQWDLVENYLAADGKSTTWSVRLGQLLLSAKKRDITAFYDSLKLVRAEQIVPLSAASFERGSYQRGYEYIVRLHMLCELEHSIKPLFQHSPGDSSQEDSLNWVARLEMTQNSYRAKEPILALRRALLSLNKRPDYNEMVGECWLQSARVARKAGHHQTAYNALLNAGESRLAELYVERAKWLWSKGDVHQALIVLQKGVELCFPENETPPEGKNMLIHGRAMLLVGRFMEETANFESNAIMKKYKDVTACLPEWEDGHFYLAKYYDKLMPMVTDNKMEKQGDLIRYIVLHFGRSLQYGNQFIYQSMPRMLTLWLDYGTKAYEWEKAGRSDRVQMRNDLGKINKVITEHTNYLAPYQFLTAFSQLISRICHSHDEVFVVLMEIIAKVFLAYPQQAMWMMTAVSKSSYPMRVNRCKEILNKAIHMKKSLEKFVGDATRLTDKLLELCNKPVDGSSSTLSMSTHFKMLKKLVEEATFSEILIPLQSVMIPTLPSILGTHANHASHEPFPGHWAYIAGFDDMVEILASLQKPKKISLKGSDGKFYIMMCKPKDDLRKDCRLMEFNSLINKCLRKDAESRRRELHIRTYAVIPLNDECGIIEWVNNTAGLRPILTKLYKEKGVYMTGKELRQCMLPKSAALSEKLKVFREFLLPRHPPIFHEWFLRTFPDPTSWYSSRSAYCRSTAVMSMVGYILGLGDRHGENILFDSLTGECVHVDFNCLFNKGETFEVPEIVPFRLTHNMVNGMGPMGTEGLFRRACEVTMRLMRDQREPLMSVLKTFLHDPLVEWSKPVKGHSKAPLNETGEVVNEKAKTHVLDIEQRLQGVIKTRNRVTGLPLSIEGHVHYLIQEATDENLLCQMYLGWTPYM
Chain of ATR (Q8WXE1 whole entry partner): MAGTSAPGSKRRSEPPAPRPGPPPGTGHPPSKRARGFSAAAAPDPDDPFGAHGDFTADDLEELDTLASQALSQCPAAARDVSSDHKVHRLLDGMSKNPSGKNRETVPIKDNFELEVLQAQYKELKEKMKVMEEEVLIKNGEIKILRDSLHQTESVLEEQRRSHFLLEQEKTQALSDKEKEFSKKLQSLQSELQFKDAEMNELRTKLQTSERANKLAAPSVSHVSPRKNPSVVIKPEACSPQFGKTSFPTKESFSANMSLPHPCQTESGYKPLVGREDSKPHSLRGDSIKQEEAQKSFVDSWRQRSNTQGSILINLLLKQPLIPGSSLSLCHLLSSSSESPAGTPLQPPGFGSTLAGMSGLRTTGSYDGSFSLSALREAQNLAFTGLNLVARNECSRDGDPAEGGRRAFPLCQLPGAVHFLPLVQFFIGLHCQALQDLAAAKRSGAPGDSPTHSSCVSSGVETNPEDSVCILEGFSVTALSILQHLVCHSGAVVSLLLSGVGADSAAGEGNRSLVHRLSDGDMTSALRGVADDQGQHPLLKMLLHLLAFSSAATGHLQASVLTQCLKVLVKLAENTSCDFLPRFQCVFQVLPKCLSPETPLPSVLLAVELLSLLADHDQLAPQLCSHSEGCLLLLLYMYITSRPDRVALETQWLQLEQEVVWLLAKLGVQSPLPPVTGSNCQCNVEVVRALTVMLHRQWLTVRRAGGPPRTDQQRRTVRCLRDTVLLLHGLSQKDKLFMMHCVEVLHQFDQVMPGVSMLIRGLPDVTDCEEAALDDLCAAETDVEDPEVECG

ATM = ATM (Homo sapiens, UniProt Q13315); settings: cited from earlier work
[1] = cited from earlier work
Chk1 = target: T1, Chk1 (Homo sapiens, UniProt O14757); settings: read-out: IC50 against primary target (Chk1); cited from earlier work
T1 sequence (O14757 1-476): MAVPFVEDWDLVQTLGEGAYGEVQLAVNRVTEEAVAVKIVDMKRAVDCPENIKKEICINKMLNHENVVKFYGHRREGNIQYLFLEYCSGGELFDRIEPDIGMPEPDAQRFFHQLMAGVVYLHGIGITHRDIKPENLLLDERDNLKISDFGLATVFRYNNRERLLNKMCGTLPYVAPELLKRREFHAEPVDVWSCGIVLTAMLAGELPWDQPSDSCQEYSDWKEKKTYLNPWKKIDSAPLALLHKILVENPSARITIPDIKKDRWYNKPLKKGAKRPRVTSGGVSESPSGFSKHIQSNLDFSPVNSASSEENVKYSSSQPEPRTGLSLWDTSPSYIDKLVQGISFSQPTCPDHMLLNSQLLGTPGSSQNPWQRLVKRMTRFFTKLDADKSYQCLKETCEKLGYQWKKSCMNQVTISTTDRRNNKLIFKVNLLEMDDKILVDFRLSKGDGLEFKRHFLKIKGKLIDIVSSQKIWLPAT

Jurkat cells [2] = experiment: Cell cycle histograms (DNA content), 24 h treatment; type: cell-based; settings: dCF with 5 μM dA
Procedure: Cells were plated at the density of 0.5 million cells per ml per well in respective media/treatment. After 24 h incubation, cells were harvested and washed with PBS twice before staining with 0.5 ml of propidium iodide (Calbiochem, 1 μg/ml) solution containing Ribonuclease A and 0.3% Triton-X 100. The samples were protected from light before acquisition by flow cytometry.

Jurkat cells [3] = experiment: dATP/DNA-A biosynthesis with [^13C6]glucose and [^15N5]dA labeling; type: cell-based
Procedure: The precursor for DNA-A, dATP, can be produced from glucose via the de novo pathway and from salvage of extracellular dA either as nucleobase and/or intact nucleoside (FIG. 41A). […] Pharmacological perturbations were used to investigate the contributions of each dA salvage pathway (FIG. 41A). Jurkat cells were labeled for 18 h in the following conditions: untreated, ADA inhibitor Pentostatin (dCF) and DI-82, a specific dCK inhibitor. The labeled media contained […] [U-^13C6]glucose to represent the de novo contribution and 5 μM [^15N5]dA to represent salvage pathways. At the end of the incubation time, [^15N5]dA was undetectable in the culture media from the untreated Jurkat cells, reflecting the high ADA activity in these leukemia cells (FIG. 41B). In contrast, the culture media from dCF treated cells contained 1.5 μM [^15N5]dA, indicative of reduced dA catabolism.
(§1) Cells were transferred into RPMI-1640 without glucose and supplemented with 10% dialyzed FBS (Gibco) containing any of the following labeled substrates (Cambridge Isotopes): precursors for de novo [U-^13C6]glucose (Sigma-Aldrich) at 11 mM; precursors for purine salvage [U-^13C10,^15N5]dA (Cambridge Isotopes), [^15N5]dA (Cambridge Isotopes), [^15N5]dG (Cambridge Isotopes), [U-^13C5,^15N4]Hx (Cambridge Isotopes) at 5 μM or as indicated in the text; and precursors for pyrimidine salvage: [U-^13C9,^15N3]dC (Silantes) and [U-^13C10,^15N2]dT (Cambridge Isotopes) at 5 μM. The cells were incubated for 18 h or as indicated in the text before samples collection and processing.
(§2) Culture medium was collected 20 μL at the indicated time points. Stock solutions (10 mM) of [U-^13C10,^15N5]dA, and [^15N3]dC (Cambridge Isotope Laboratories) were prepared individually in dimethyl sulfoxide (DMSO), and stored at −20° C. before use as internal standards. The internal standards were diluted to 20 nM in methanol to generate internal standard solution. Calibration standards were prepared by spiking working stock solutions of [U-^13C10,^15N5]dA and [U-^13C9,^15N3]dC blank media to give concentrations in the 10 nM-10 μM range. Each 20 μL calibration standard sample was mixed with 60 μL of internal standard solution, mixed (30 s) and centrifuged (15,000 g, 10 min, 4° C.) and 60 μL of supernatant were transferred into a clean mass spec vial for LC-MS/MS-MRM analysis. Media samples were processed similarly and in parallel to the calibration standard samples.
Cells were collected into microcentrifuge tube and centrifuged (450×g, 4 min, 4° C.). The supernatant was carefully aspirated. The cells were washed twice by the addition of 1 mL of cold PBS and centrifugation (450×g, 4 min 4° C.). PBS washes were aspirated. Thereafter, cells were lysed in 40 μL of 70% methanol/water (v/v), vortexed (30 s) and incubated on ice for 10 min. […]

Jurkat cells [4] = experiment: dGTP/DNA-G biosynthesis with [^13C6]glucose and [^15N5]dG labeling; type: cell-based
Procedure: Another approach to study dGTP/DNA-G biosynthetic pathways is through anticancer therapy Forodesine (BCX-1777). The precursor for DNA-G, dGTP, can be produced from glucose via the de novo pathway and from salvage of extracellular dG either as nucleobase and/or intact nucleoside (FIG. 42A). […] Jurkat cells were labeled for 18 h in the following conditions: untreated, PNP inhibitor (BCX-1777) and DI-82, a specific dCK inhibitor. The labeled media contained […] [U-^13C6]glucose to represent the de novo contribution and 5 μM [^15N5]dG to represent salvage pathways. At the end of the incubation time, [^15N5]dG decreased nearly three orders of magnitude in the culture media from the untreated Jurkat cells, reflecting the high PNP activity in these leukemia cells (FIG. 42B). In contrast, the culture media from BCX-1777 treated cells contained 1.8 μM [^15N5]dG, indicative of reduced dG catabolism.
as §1, §2
Cells were collected into microcentrifuge tube and centrifuged (450×g, 4 min, 4° C.). The supernatant was carefully aspirated. The cells were washed twice by the addition of 1 mL of cold PBS and centrifugation (450×g, 4 min 4° C.). PBS washes were aspirated. […]

CEM cells = experiment: Mass spectrometric assay of de novo (RNR) and salvage (dCK) contribution to dCTP and DNA-C; type: cell-based; settings: G1 released CEM cells
Procedure: To analyze the differential utilization of de novo and nucleotide biosynthetic salvage pathways, cultured cells were incubated with stable isotope labeled DNA precursors. […] Extracted dNTP and DNA were analyzed in a triple quadrupole mass spectrometer (QQQ) using multiple reaction monitoring (MRM). The first (Q1) and third (Q3) quadrupoles function as mass filters while the second (Q2) quadrupole serves as a collision chamber. […] In Q2, the glycosidic bond of the selected dC is cleaved, releasing a protonated nucleobase (NB) fragment and a neutral deoxyribose (dR) molecule. The m/z specific NB fragments from dC is separated in Q3 and detected to generate ion chromatograms. […] Each identifier corresponded to a specific biosynthetic pathway and is defined as [x;y], where “x” is the number of heavy isotope-labeled atoms in NB and “y” is the number of heavy isotope atoms in dR. […] According to current biochemical maps of nucleotide metabolism, the [7;5] identifier can only arise from salvaging [U-^13C9,^15N3]dC into newly synthesized DNA. In contrast, a dC with a [0,5] identifier is a product of the de novo pathway. The ratio of the peak areas in the ion chromatograms of salvage [7;5] and de novo [0;5] identifiers describes the relative contributions of the two biosynthetic routes to the dCTP pool used for DNA replication.
Genomic DNA was extracted using the Quick-gDNA MiniPrep kit (Zymo Research, D3021) and hydrolyzed to nucleosides using the DNA Degradase Plus kit (Zymo Research, E2021) following manufacturer-supplied instructions. In the final step of DNA extraction, 50 μL of water was used to elute the DNA. A nuclease premix solution was prepared by mixing 10× buffer, DNA degradase Plus™ and water in the ratio of 2.5/1/1.5 (v/v/v). DNA hydrolysis reaction was prepared in mass spec vials by mixing 5 μL of the nuclease premix solution (5 U of enzyme) and 20 μL of eluted genomic DNA, the total volume becomes 25 μL. The samples were tapped and flicked downward prior to overnight before incubation at 37° C.
Cells were collected into microcentrifuge tube and centrifuged (450×g, 4 min, 4° C.). The supernatant was carefully aspirated. The cells were washed twice by the addition of 1 mL of cold PBS and centrifugation (450×g, 4 min 4° C.). PBS washes were aspirated. Thereafter, cells were lysed in 40 μL of 70% methanol/water (v/v), vortexed (30 s) and incubated on ice for 10 min. Then 40 μL of chloroform (Fisher) was added, vortexed (30 s) and incubated on ice for another 10 min. The samples were then centrifuged at max speed for 10 min at 4° C. Finally, the supernatant was transferred (≈25 μL) into a mass spec vial.
For genomic DNA and media analysis, an aliquot of DNA hydrolysis or media samples (20 μL) was injected directly onto a porous graphitic carbon column (Thermo Fisher Scientific Hypercarb, 100×2.1 mm, 5 μm particle size) equilibrated in solvent A (water/acetonitrile/formic acid, 95/5/0.2, v/v/v) and eluted (200 μL/min) with an increasing concentration of solvent B (acetonitrile/water/formic acid, 90/10/0.2, v/v/v): min/% B/flow rate (μL/min); 0/0/200, 5/0/200, 10/15/200, 20/15/200, 21/40/200, 25/50/200, 26/100/700, 30/100/700, 3I/O/700, 34/0/700, 35/0/200).

CCRF-CEM T-ALL cells = experiment: EdU pulse assay of cell cycle progression after release from G1 arrest; type: cell-based; settings: synchronized CEM cells released from G1
Procedure: Following release from G1, cells progress to early, mid and late S phase (defined as S1, S2 and S3, respectively) and G2/M. By 18 h following release in drug-free media, 42.5% of cells progressed to S3. […] Thus, dCK represents a resistance mechanism to ATR inhibition.
Cells were treated with a CDK4/6 inhibitor, PD-0332991 (Selleckchem) for 18 h to arrest in G1 phase. Subsequently, cells were washed and released into fresh media containing 10% FBS to monitor the progression of synchronized cells throughout the cell cycle by flow cytometry analysis.
For measuring cell cycle progression of synchronous population of cells, cells were first arrested in G1 phase, then washed and released in treated media. Before collecting and fixing cells at various time points, cells were pulse-labeled with 10 μM EdU for 1 h, and then click-labeled with azide-Alexa Fluor 647 (Invitrogen; Click-iT EdU Flow cytometry kit) according to manufacturer's protocol. Total DNA content was assessed by staining with FxCycle-Violet (Invitrogen) at 1 μg/mL final concentration in PBS containing 2% FBS.

[5] = test system: p185^BCR-ABLArf^−/− pre-B cells; experiment: dCTP pool and DNA-C measurement with [U-^13C9,^15N3]dC and [U-^13C6]glucose; type: cell-based, mouse; settings: 3, 6, 9 and 12 h treatment
Source text: Therefore, p185^BCR-ABLArf^−/− pre-B cells were labeled with [U-^13C9,^15N3]dC and [U-^13C6]glucose to measure the contribution of salvage pathway via dCK and de novo pathway via RNR, respectively.

[6] = Solubility study in phosphate buffer solution; type: physicochemical; settings: aqueous buffer

Cc1occc(=O)c1[O-].Cc1occc(=O)c1[O-].Cc1occc(=O)c1[O-].[Ga+3] [Gallium Maltolate]
IC50 (leukemia cell growth; 3-AP: cell type independent): 30 µM

NC(=O)NO [Hydroxyurea]
IC50 (leukemia cell growth; 3-AP: cell type independent): 39 µM

CS(=O)(=O)c1ccc(-c2cnc(N)c(C(=O)Nc3ccccc3)n2)cc1 [VE-821]
IC50 (ATR): 0.019 µM
IC50 (ATM): 34 µM

CCN1CCC(Oc2c(C#N)ncc3[nH]c4ncccc4c23)CC1 [GDC0425]
oral bioavailability [1]: orally bioavailable

N#Cc1cc2c(cn1)[nH]c1ncc(-c3ccc(CN4CCCCC4)cc3)cc12 [GNE-900]
IC50 (Chk1): 0.001 µM

OC[C@H]1O[C@@H](n2cnc3c2NC=NC[C@H]3O)C[C@@H]1O [dCF, Pentostatin]
reduction of the proportion of cells in G2/M (Jurkat cells [2]): more than 2 fold
reduction of the proportion of cells in S-phase (Jurkat cells [2]): 3 fold
[^15N5]dA in the culture media at the end of incubation (Jurkat cells [3]; 18 h, 10 μM dCF, 5 μM [^15N5]dA added): 1.5 µM
increase of dATP pools compared to untreated cells (Jurkat cells [3]; 18 h, ADA inhibition by dCF): 6 fold
increase in dA salvage into dATP (Jurkat cells [3]; 18 h, dCF): over 190 fold

COc1ccc(-c2nc(C(C)Sc3nc(N)cc(N)n3)c(C)s2)cc1OCCNS(C)(=O)=O (centres unmarked) [DI-82, N-(2-(5-(4-(1-((4,6-diaminopyrimidin-2-yl)thio)ethyl)-5-methylthiazol-2-yl)-2-methoxyphenoxy)ethyl)methanesulfonamide]
effect on the increased dGTP pool level caused by BCX-1777 (Jurkat cells [4]; 1 μM DI-82 added to BCX-1777): completely reversed
contribution of dCK to dCTP and DNA-C (CEM cells): completely abrogates
effect on cell cycle progression (CCRF-CEM T-ALL cells): does not significantly impair cell cycle progression
dCTP pool [5]: nearly depleted
effect on the increased dATP pool level caused by dCF (Jurkat cells [3]; 1 μM DI-82 added to dCF): completely reversed
solubility [6]: < 300 µg/mL

O=c1[nH]cnc2c([C@@H]3N[C@H](CO)[C@@H](O)[C@H]3O)c[nH]c12 [BCX-1777, Forodesine]
[^15N5]dG in the culture media at the end of incubation (Jurkat cells [4]; 18 h, 5 nM BCX-1777, 5 μM [^15N5]dG added): 1.8 µM
increase in dG salvage into dGTP (Jurkat cells [4]; 18 h, BCX-1777): over 300 fold
increase of dGTP pools compared to untreated cells (Jurkat cells [4]; 18 h, PNP inhibition by BCX-1777): 6 fold

Cn1c(=O)n(-c2ccc(C(C)(C)C#N)cc2)c2c3cc(-c4cnc5ccccc5c4)ccc3ncc21 [NVP-BEZ235]
IC50 (ATR): 0.021 µM

N[C@@H]1CCCN(c2c(Br)cnc3[nH]cc(NC(=O)C4CC4)c23)C1 [GDC0575]
oral bioavailability [1]: orally bioavailable

C[C@@H]1COCCN1c1cc(C2([S@](C)(=N)=O)CC2)nc(-c2cc[nH]c3nccc2-3)n1 [AZD6738]
oral bioavailability [1]: bioavailable)

COc1cc(Nc2cnc(C#N)c(O[C@H](C)CN(C)C)n2)ncc1-c1cnn(C)c1 [CCT244747]
oral bioavailability [1]: bioavailable)
IC50 (Chk1): 0.029 to 0.17 µM

Cc1cn([C@H]2C[C@H](O)[C@@H](CO)O2)c(=O)[nH]c1=O [Thymidine]
IC50 (leukemia cell growth; cell type dependent, range printed with two units (μM to mM)): 50 to 5000 µM
